Laboratory results reported in PubChem BioAssay (NCI).
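These data come from cells grown in 96-well plates and exposed to compound for 48 hours at five concentrations. TGI: total growth inhibition.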

Columns and labels:
Experiment in all cases: NCI tumour cell line growth inhibition, 48 h
T-47D breast = system: T-47D breast
MDA-MB-435 = system: MDA-MB-435
OVCAR-3 ovarian = system: OVCAR-3 ovarian
BT-549 breast = system: BT-549 breast
HOP-92 NSCLC = system: HOP-92 NSCLC
COLO 205 colon = system: COLO 205 colon
M14 melanoma = system: M14 melanoma
SK-MEL-28 melanoma = system: SK-MEL-28 melanoma
SW-620 colon = system: SW-620 colon
SF-295 CNS = system: SF-295 CNS
SF-539 CNS = system: SF-539 CNS
HT29 colon = system: HT29 colon
SNB-75 CNS = system: SNB-75 CNS
U251 CNS = system: U251 CNS
NCI-H23 lung = system: NCI-H23 lung
786-0 renal = system: 786-0 renal
UACC-62 melanoma = system: UACC-62 melanoma
SNB-19 CNS = system: SNB-19 CNS
EKVX NSCLC = system: EKVX NSCLC
MOLT-4 leukemia = system: MOLT-4 leukemia
NCI-H522 lung = system: NCI-H522 lung
MCF7 breast = system: MCF7 breast
OVCAR-8 ovarian = system: OVCAR-8 ovarian
HCT-15 colon = system: HCT-15 colon
MALME-3M melanoma = system: MALME-3M melanoma
HCT-116 colon = system: HCT-116 colon
NCI/ADR-RES ovarian = system: NCI/ADR-RES ovarian
CCRF-CEM leukemia = system: CCRF-CEM leukemia
RPMI-8226 leukemia = system: RPMI-8226 leukemia
IGROV1 ovarian = system: IGROV1 ovarian
LOX IMVI melanoma = system: LOX IMVI melanoma
KM12 colon = system: KM12 colon
K-562 leukemia = system: K-562 leukemia
CAKI-1 renal = system: CAKI-1 renal
NCI-H460 lung = system: NCI-H460 lung
OVCAR-4 ovarian = system: OVCAR-4 ovarian
HOP-62 NSCLC = system: HOP-62 NSCLC
SK-MEL-2 melanoma = system: SK-MEL-2 melanoma
A549 NSCLC = system: A549 NSCLC
SN12C renal = system: SN12C renal
TK-10 renal = system: TK-10 renal
OVCAR-5 ovarian = system: OVCAR-5 ovarian
MDA-N = system: MDA-N
UO-31 renal = system: UO-31 renal
UACC-257 melanoma = system: UACC-257 melanoma
SK-MEL-5 melanoma = system: SK-MEL-5 melanoma
HCC-2998 colon = system: HCC-2998 colon
MDA-MB-231 breast = system: MDA-MB-231 breast
SF-268 CNS = system: SF-268 CNS
DU-145 prostate = system: DU-145 prostate
PC-3 prostate = system: PC-3 prostate
HL-60(TB) leukemia = system: HL-60(TB) leukemia
ACHN renal = system: ACHN renal
SR leukemia = system: SR leukemia
SK-OV-3 ovarian = system: SK-OV-3 ovarian
HS 578T breast = system: HS 578T breast
RXF 393 renal = system: RXF 393 renal
NCI-H226 lung = system: NCI-H226 lung
A498 renal = system: A498 renal

O=CNc1ccc(S(=O)(=O)c2ccc(NC=O)cc2)cc1
TGI (T-47D breast): > 100 µM
TGI (MDA-MB-435): > 100 µM
TGI (OVCAR-3 ovarian): > 100 µM
TGI (BT-549 breast): > 100 µM
TGI (HOP-92 NSCLC): > 100 µM
TGI (COLO 205 colon): > 100 µM
TGI (M14 melanoma): > 100 µM
TGI (SK-MEL-28 melanoma): > 100 µM
TGI (SW-620 colon): > 100 µM
TGI (SF-295 CNS): > 100 µM
TGI (SF-539 CNS): > 100 µM
TGI (HT29 colon): > 100 µM
TGI (SNB-75 CNS): > 100 µM
TGI (U251 CNS): > 100 µM
TGI (NCI-H23 lung): > 100 µM
TGI (786-0 renal): > 100 µM
TGI (UACC-62 melanoma): > 100 µM
TGI (SNB-19 CNS): > 100 µM
TGI (EKVX NSCLC): > 100 µM
TGI (MOLT-4 leukemia): > 100 µM
TGI (NCI-H522 lung): > 100 µM
TGI (MCF7 breast): > 100 µM
TGI (OVCAR-8 ovarian): > 100 µM
TGI (HCT-15 colon): > 100 µM
TGI (MALME-3M melanoma): > 100 µM
TGI (HCT-116 colon): > 100 µM
TGI (NCI/ADR-RES ovarian): > 100 µM
TGI (CCRF-CEM leukemia): > 100 µM
TGI (RPMI-8226 leukemia): > 100 µM
TGI (IGROV1 ovarian): > 100 µM
TGI (LOX IMVI melanoma): > 100 µM
TGI (KM12 colon): > 100 µM
TGI (K-562 leukemia): > 100 µM
TGI (CAKI-1 renal): > 100 µM
TGI (NCI-H460 lung): > 100 µM
TGI (OVCAR-4 ovarian): > 100 µM
TGI (HOP-62 NSCLC): > 100 µM
TGI (SK-MEL-2 melanoma): > 100 µM
TGI (A549 NSCLC): > 100 µM
TGI (SN12C renal): > 100 µM
TGI (TK-10 renal): > 100 µM
TGI (OVCAR-5 ovarian): > 100 µM
TGI (MDA-N): > 100 µM
TGI (UO-31 renal): > 100 µM
TGI (UACC-257 melanoma): > 100 µM
TGI (SK-MEL-5 melanoma): > 100 µM
TGI (HCC-2998 colon): > 100 µM
TGI (MDA-MB-231 breast): > 100 µM
TGI (SF-268 CNS): > 100 µM
TGI (DU-145 prostate): > 100 µM
TGI (PC-3 prostate): > 100 µM
TGI (HL-60(TB) leukemia): > 100 µM
TGI (ACHN renal): > 100 µM
TGI (SR leukemia): > 100 µM
TGI (SK-OV-3 ovarian): > 100 µM
TGI (HS 578T breast): > 100 µM

COC(=O)C1=C(OC(=O)/C=C/c2ccc(Cl)cc2)C(C(=O)OC)[C@]2(O)[C@@H](C(=O)OC)[C@H]1C[C@@H](c1ccccc1)[C@@H]2C(=O)OC (some centres not stated)
TGI (T-47D breast): > 100 µM
TGI (MDA-MB-435): > 100 µM
TGI (OVCAR-3 ovarian): > 100 µM
TGI (BT-549 breast): > 28.5 µM
TGI (HOP-92 NSCLC): 7.73 µM
TGI (COLO 205 colon): > 22.2 µM
TGI (M14 melanoma): 49.8 µM
TGI (SK-MEL-28 melanoma): > 100 µM
TGI (SW-620 colon): > 100 µM
TGI (SF-295 CNS): > 100 µM
TGI (SF-539 CNS): 35.6 µM
TGI (HT29 colon): > 100 µM
TGI (SNB-75 CNS): > 100 µM
TGI (U251 CNS): > 100 µM
TGI (NCI-H23 lung): > 25.1 µM
TGI (786-0 renal): > 25.2 µM
TGI (UACC-62 melanoma): > 100 µM
TGI (SNB-19 CNS): > 95.9 µM
TGI (EKVX NSCLC): 53.2 µM
TGI (MOLT-4 leukemia): > 100 µM
TGI (NCI-H522 lung): 5.83 µM
TGI (OVCAR-8 ovarian): > 30.7 µM
TGI (HCT-15 colon): > 47.1 µM
TGI (MALME-3M melanoma): 20.4 µM
TGI (HCT-116 colon): > 29.4 µM
TGI (RXF 393 renal): > 100 µM
TGI (NCI/ADR-RES ovarian): > 28.8 µM
TGI (CCRF-CEM leukemia): > 100 µM
TGI (RPMI-8226 leukemia): > 100 µM
TGI (IGROV1 ovarian): > 25.9 µM
TGI (LOX IMVI melanoma): > 70.4 µM
TGI (KM12 colon): > 100 µM
TGI (K-562 leukemia): > 100 µM
TGI (CAKI-1 renal): > 100 µM
TGI (NCI-H460 lung): > 100 µM
TGI (OVCAR-4 ovarian): > 100 µM
TGI (HOP-62 NSCLC): > 100 µM
TGI (NCI-H226 lung): 18.6 µM
TGI (SK-MEL-2 melanoma): > 27.9 µM
TGI (A549 NSCLC): > 100 µM
TGI (SN12C renal): > 29.5 µM
TGI (TK-10 renal): > 100 µM
TGI (OVCAR-5 ovarian): > 100 µM
TGI (MDA-N): > 23.1 µM
TGI (UO-31 renal): > 30.9 µM
TGI (UACC-257 melanoma): > 100 µM
TGI (SK-MEL-5 melanoma): 12.7 µM
TGI (A498 renal): 44.2 µM
TGI (HCC-2998 colon): 46.9 µM
TGI (MDA-MB-231 breast): > 65.9 µM
TGI (SF-268 CNS): > 25.4 µM
TGI (DU-145 prostate): > 100 µM
TGI (PC-3 prostate): > 47.6 µM
TGI (HL-60(TB) leukemia): 23.7 µM
TGI (ACHN renal): > 100 µM
TGI (SR leukemia): > 100 µM
TGI (SK-OV-3 ovarian): > 100 µM
TGI (HS 578T breast): 94 µM

O=c1ccc(=O)n(-c2ccccc2)[nH]1
TGI (T-47D breast): > 100 µM
TGI (MDA-MB-435): > 100 µM
TGI (OVCAR-3 ovarian): > 100 µM
TGI (BT-549 breast): > 100 µM
TGI (HOP-92 NSCLC): > 100 µM
TGI (COLO 205 colon): > 100 µM
TGI (M14 melanoma): > 100 µM
TGI (SK-MEL-28 melanoma): > 100 µM
TGI (SW-620 colon): > 100 µM
TGI (SF-295 CNS): > 100 µM
TGI (SF-539 CNS): > 100 µM
TGI (HT29 colon): > 100 µM
TGI (SNB-75 CNS): > 100 µM
TGI (U251 CNS): > 100 µM
TGI (NCI-H23 lung): > 100 µM
TGI (786-0 renal): > 100 µM
TGI (UACC-62 melanoma): > 100 µM
TGI (SNB-19 CNS): > 100 µM
TGI (EKVX NSCLC): > 100 µM
TGI (MOLT-4 leukemia): > 100 µM
TGI (NCI-H522 lung): > 100 µM
TGI (MCF7 breast): > 100 µM
TGI (OVCAR-8 ovarian): > 100 µM
TGI (HCT-15 colon): > 100 µM
TGI (MALME-3M melanoma): > 100 µM
TGI (HCT-116 colon): > 100 µM
TGI (RXF 393 renal): > 100 µM
TGI (NCI/ADR-RES ovarian): > 100 µM
TGI (CCRF-CEM leukemia): > 100 µM
TGI (RPMI-8226 leukemia): > 100 µM
TGI (IGROV1 ovarian): > 100 µM
TGI (LOX IMVI melanoma): > 100 µM
TGI (KM12 colon): > 100 µM
TGI (K-562 leukemia): > 100 µM
TGI (CAKI-1 renal): > 100 µM
TGI (NCI-H460 lung): > 100 µM
TGI (OVCAR-4 ovarian): > 100 µM
TGI (HOP-62 NSCLC): > 100 µM
TGI (NCI-H226 lung): > 100 µM
TGI (SK-MEL-2 melanoma): > 100 µM
TGI (A549 NSCLC): > 100 µM
TGI (SN12C renal): > 100 µM
TGI (TK-10 renal): > 100 µM
TGI (OVCAR-5 ovarian): > 100 µM
TGI (MDA-N): > 100 µM
TGI (UO-31 renal): > 100 µM
TGI (UACC-257 melanoma): > 100 µM
TGI (SK-MEL-5 melanoma): > 100 µM
TGI (A498 renal): > 100 µM
TGI (HCC-2998 colon): > 100 µM
TGI (MDA-MB-231 breast): > 100 µM
TGI (SF-268 CNS): > 100 µM
TGI (DU-145 prostate): > 100 µM
TGI (PC-3 prostate): > 100 µM
TGI (HL-60(TB) leukemia): > 100 µM
TGI (ACHN renal): > 100 µM
TGI (SK-OV-3 ovarian): > 100 µM
TGI (HS 578T breast): > 100 µM
